Laboratory results taken from the NIST ThermoML archive (doi:10.1021/je060271a).
Values joined by “and” are separate entries in the source; they are usually repeats but may differ in a detail not shown here. Equal entries are not always repeated.

Conditions: Liquid, Vibrating tube method

CCCCC(=O)OCC(COC(=O)CCCC)(COC(=O)CCCC)COC(=O)CCCC [pentaerythritol tetrapentanoate]
Conditions	mass density
343.14 K, 22204 kPa	994.9 kg/m3
343.14 K, 22235 kPa	994.9 kg/m3
343.14 K, 22267 kPa	995 kg/m3
343.14 K, 22298 kPa	995 kg/m3
343.14 K, 22334 kPa	995 kg/m3
343.14 K, 22365 kPa	994.9 kg/m3
343.14 K, 22395 kPa	994.9 kg/m3
343.14 K, 22432 kPa	994.9 kg/m3
343.14 K, 22462 kPa	995.1 kg/m3
343.14 K, 22494 kPa	995 kg/m3
343.14 K, 22562 kPa	995.1 kg/m3
343.14 K, 22594 kPa	995 kg/m3
343.14 K, 22728 kPa	995.2 kg/m3
343.14 K, 22766 kPa	995.2 kg/m3
343.14 K, 22798 kPa	995.3 kg/m3
343.14 K, 22830 kPa	995.3 kg/m3
343.14 K, 22868 kPa	995.3 kg/m3
343.14 K, 22901 kPa	995.4 kg/m3
343.14 K, 22933 kPa	995.4 kg/m3
343.14 K, 22971 kPa	995.4 kg/m3
343.14 K, 23004 kPa	995.4 kg/m3
343.14 K, 23038 kPa	995.4 kg/m3
343.14 K, 23077 kPa	995.5 kg/m3
343.14 K, 23110 kPa	995.5 kg/m3
343.14 K, 23144 kPa	995.4 kg/m3
343.14 K, 23177 kPa	995.5 kg/m3
343.14 K, 23217 kPa	995.5 kg/m3
343.14 K, 23284 kPa	995.6 kg/m3
343.14 K, 23357 kPa	995.6 kg/m3
343.14 K, 23391 kPa	995.5 kg/m3
343.14 K, 23432 kPa	995.8 kg/m3
343.14 K, 23500 kPa	995.8 kg/m3
343.14 K, 23535 kPa	995.9 kg/m3
343.14 K, 23577 kPa	995.7 kg/m3
343.14 K, 23612 kPa	995.8 kg/m3
343.14 K, 23646 kPa	995.8 kg/m3
343.14 K, 23687 kPa	995.8 kg/m3
343.14 K, 23722 kPa	995.9 kg/m3
343.14 K, 23757 kPa	995.9 kg/m3
343.14 K, 23799 kPa	995.9 kg/m3
343.14 K, 23834 kPa	996 kg/m3
343.14 K, 23870 kPa	996 kg/m3
343.14 K, 23913 kPa	996.1 kg/m3
343.14 K, 23949 kPa	996.2 kg/m3
343.14 K, 24100 kPa	996 kg/m3
343.14 K, 24817 kPa	996.7 kg/m3
343.14 K, 25020 kPa	996.6 kg/m3
343.14 K, 25061 kPa	996.8 kg/m3
343.14 K, 25102 kPa	996.8 kg/m3
343.14 K, 25142 kPa	996.7 kg/m3
343.14 K, 25188 kPa	996.9 kg/m3
343.14 K, 25228 kPa	996.9 kg/m3
343.14 K, 25406 kPa	996.9 kg/m3
343.14 K, 25451 kPa	997.1 kg/m3
343.14 K, 25495 kPa	997 kg/m3
343.14 K, 25549 kPa	997 kg/m3
343.14 K, 25596 kPa	997.1 kg/m3
343.14 K, 25644 kPa	997.2 kg/m3
343.14 K, 25691 kPa	997.1 kg/m3
343.14 K, 25745 kPa	997.1 kg/m3
343.14 K, 25792 kPa	997.2 kg/m3
343.14 K, 25943 kPa	997.2 kg/m3
343.14 K, 25992 kPa	997.3 kg/m3
343.14 K, 26041 kPa	997.5 kg/m3
343.14 K, 26099 kPa	997.5 kg/m3
343.14 K, 26149 kPa	997.5 kg/m3
343.14 K, 30161 kPa	1000.1 kg/m3
343.14 K, 32316 kPa	1001.3 kg/m3
343.14 K, 32354 kPa	1001.4 kg/m3
343.14 K, 32399 kPa	1001.4 kg/m3
343.14 K, 32523 kPa	1001.6 kg/m3
343.15 K, 106.2 kPa	978.6 kg/m3
343.15 K, 106.4 kPa	978.5 kg/m3 and 978.6 kg/m3
343.15 K, 106.6 kPa	978.5 kg/m3
343.15 K, 106.7 kPa	978.6 kg/m3
343.15 K, 106.8 kPa	978.6 kg/m3
343.15 K, 106.9 kPa	978.6 kg/m3
343.15 K, 107.4 kPa	978.6 kg/m3
343.15 K, 109.5 kPa	978.6 kg/m3
343.15 K, 114.4 kPa	978.4 kg/m3
343.15 K, 120 kPa	978.7 kg/m3
343.15 K, 122.2 kPa	978.7 kg/m3
343.15 K, 125.2 kPa	978.7 kg/m3
343.15 K, 129.2 kPa	978.7 kg/m3
343.15 K, 133.3 kPa	978.6 kg/m3
343.15 K, 138.9 kPa	978.6 kg/m3
343.15 K, 146.6 kPa	978.5 kg/m3
343.15 K, 154.5 kPa	978.6 kg/m3
343.15 K, 164.6 kPa	978.5 kg/m3
343.15 K, 180.1 kPa	978.6 kg/m3
343.15 K, 197 kPa	978.6 kg/m3
343.15 K, 217.8 kPa	978.7 kg/m3
343.15 K, 250.8 kPa	978.7 kg/m3
343.15 K, 286.7 kPa	978.8 kg/m3
343.15 K, 330.1 kPa	978.8 kg/m3
343.15 K, 380.3 kPa	978.7 kg/m3
343.15 K, 749.2 kPa	979 kg/m3
343.15 K, 1709.2 kPa	979.9 kg/m3
343.15 K, 1788.2 kPa	980 kg/m3
343.15 K, 1843.4 kPa	979.8 kg/m3
343.15 K, 1867.5 kPa	979.9 kg/m3
343.15 K, 1894.4 kPa	980 kg/m3
343.15 K, 1917.3 kPa	979.9 kg/m3
343.15 K, 1941.1 kPa	980 kg/m3
343.15 K, 1965.4 kPa	980.1 kg/m3
343.15 K, 1994.4 kPa	979.9 kg/m3
343.15 K, 2019 kPa	980.2 kg/m3
343.15 K, 2044.9 kPa	980.2 kg/m3
343.15 K, 2075.6 kPa	980 kg/m3
343.15 K, 2102.6 kPa	980 kg/m3
343.15 K, 2129.9 kPa	980.2 kg/m3
343.15 K, 2163.5 kPa	980.2 kg/m3
343.15 K, 2193.4 kPa	980.1 kg/m3
343.15 K, 2252.9 kPa	980.3 kg/m3
343.15 K, 2352.8 kPa	980.3 kg/m3
343.15 K, 2494.2 kPa	980.5 kg/m3
343.15 K, 2573.8 kPa	980.5 kg/m3
343.15 K, 2651 kPa	980.7 kg/m3
343.15 K, 2698.2 kPa	980.6 kg/m3
343.15 K, 2738.4 kPa	980.4 kg/m3
343.15 K, 2779.7 kPa	980.7 kg/m3
343.15 K, 2830.5 kPa	980.7 kg/m3
343.15 K, 2972.7 kPa	980.9 kg/m3
343.15 K, 3068.2 kPa	981 kg/m3
343.15 K, 3117.1 kPa	980.9 kg/m3
343.15 K, 3897.8 kPa	981.5 kg/m3
343.15 K, 3924.9 kPa	981.5 kg/m3
343.15 K, 3952.8 kPa	981.6 kg/m3
343.15 K, 3986.3 kPa	981.7 kg/m3
343.15 K, 4014.7 kPa	981.6 kg/m3
343.15 K, 4043.6 kPa	981.7 kg/m3
343.15 K, 4073 kPa	981.8 kg/m3
343.15 K, 4107.7 kPa	981.6 kg/m3
343.15 K, 4137.6 kPa	981.7 kg/m3
343.15 K, 4168.8 kPa	981.8 kg/m3
343.15 K, 4199.3 kPa	981.8 kg/m3
343.15 K, 4230.1 kPa	981.9 kg/m3
343.15 K, 4267.5 kPa	981.9 kg/m3
343.15 K, 4299.4 kPa	981.8 kg/m3
343.15 K, 4597.4 kPa	982 kg/m3
343.15 K, 4629.6 kPa	982.1 kg/m3
343.15 K, 4643.1 kPa	982 kg/m3
343.15 K, 4660.4 kPa	982.2 kg/m3
343.15 K, 4661.1 kPa	982.1 kg/m3
343.15 K, 4661.7 kPa	982.1 kg/m3
343.15 K, 4662.3 kPa	982.1 kg/m3
343.15 K, 4662.6 kPa	982 kg/m3
343.15 K, 4663.1 kPa	982.2 kg/m3
343.15 K, 4754 kPa	982 kg/m3
343.15 K, 4934.5 kPa	982.4 kg/m3
343.15 K, 4956.5 kPa	982.3 kg/m3
343.15 K, 4979.2 kPa	982.3 kg/m3
343.15 K, 5005.6 kPa	982.4 kg/m3
343.15 K, 5027.6 kPa	982.5 kg/m3
343.15 K, 5050.1 kPa	982.4 kg/m3
343.15 K, 5076.2 kPa	982.3 kg/m3
343.15 K, 5120.9 kPa	982.4 kg/m3
343.15 K, 5279.4 kPa	982.6 kg/m3
343.15 K, 5366.4 kPa	982.7 kg/m3
343.15 K, 5392 kPa	982.8 kg/m3
